O=C(Nc1ccc(Oc2ccnc3c2CCN3)c(F)c1)c1c[nH]cc(-c2ccc(F)cc2)c1=O
5 (13.2) n (%): TRAE Asthenia, any grade (Total (n=38)) | TRAE Decreased appetite, any grade (Total (n=38))
7 (18.4) n (%): TRAE Elevated blood creatinine, any grade (Total (n=38))
0 n (%): TRAE Rash maculo-papular, any grade (600 mg QD (n=10)) | TRAE Rash maculo-papular, grade 3-4 (600 mg QD (n=10)) | TRAE Sinus tachycardia, grade 3-4 (600 mg QD (n=10)) | TRAE Supraventricular extrasystoles, grade 3-4 (600 mg QD (n=10)) | TRAE Upper respiratory tract infection, any grade (600 mg QD (n=10)) | TRAE Upper respiratory tract infection, grade 3-4 (600 mg QD (n=10)) | TRAE Urinary retention, grade 3-4 (600 mg QD (n=10)) | TRAE Urinary tract infection, grade 3-4 (600 mg QD (n=10)) | TRAE Ventricular arrhythmia, grade 3-4 (600 mg QD (n=10)) | TRAE Ventricular extrasystoles, any grade (600 mg QD (n=10)) | TRAE Ventricular extrasystoles, grade 3-4 (600 mg QD (n=10)) | TRAE Vomiting, any grade (600 mg QD (n=10)) | TRAE Vomiting, grade 3-4 (600 mg QD (n=10)) | TRAE Weight loss, grade 3-4 (600 mg QD (n=10)) | TRAE Accessory nerve disorder, grade 3-4 (Total (n=38)) | TRAE Activated partial thromboplastin time prolonged, grade 3-4 (Total (n=38)) | TRAE Anaesthesia oral, grade 3-4 (Total (n=38)) | TRAE Arrhythmia, grade 3-4 (Total (n=38)) | TRAE Arthralgia, grade 3-4 (Total (n=38)) | TRAE Blister, grade 3-4 (Total (n=38)) | TRAE Chest discomfort, grade 3-4 (Total (n=38)) | TRAE Chronic kidney disease, grade 3-4 (Total (n=38)) | TRAE Constipation, grade 3-4 (Total (n=38)) | TRAE Cough, grade 3-4 (Total (n=38)) | TRAE Decreased Ccr, grade 3-4 (Total (n=38)) | TRAE Diarrhoea, grade 3-4 (Total (n=38)) | TRAE Dizziness, grade 3-4 (Total (n=38)) | TRAE Dry mouth, grade 3-4 (Total (n=38)) | TRAE Dysphonia, grade 3-4 (Total (n=38)) | TRAE Electrocardiogram QT prolonged, grade 3-4 (Total (n=38)) | TRAE Elevated ALT, grade 3-4 (Total (n=38)) | TRAE Elevated AST, grade 3-4 (Total (n=38)) | TRAE Elevated D dimer, grade 3-4 (Total (n=38)) | TRAE Elevated GGT, grade 3-4 (Total (n=38)) | TRAE Elevated LDH, grade 3-4 (Total (n=38)) | TRAE Elevated alpha-HBDH, grade 3-4 (Total (n=38)) | TRAE Elevated bilirubin, grade 3-4 (Total (n=38))
1 (10.0) n (%): TRAE Sinus tachycardia, any grade (600 mg QD (n=10)) | TRAE Skin fissures, any grade (600 mg QD (n=10)) | TRAE Skin fissures, grade 3-4 (600 mg QD (n=10)) | TRAE Supraventricular extrasystoles, any grade (600 mg QD (n=10)) | TRAE Thrombocytopenia, any grade (600 mg QD (n=10)) | TRAE Thrombocytopenia, grade 3-4 (600 mg QD (n=10)) | TRAE Urinary retention, any grade (600 mg QD (n=10)) | TRAE Ventricular arrhythmia, any grade (600 mg QD (n=10)) | TRAE Weight loss, any grade (600 mg QD (n=10))
8 (21.1) n (%): TRAE Constipation, any grade (Total (n=38))
2 (5.3) n (%): TRAE Activated partial thromboplastin time prolonged, any grade (Total (n=38)) | TRAE Anaemia, any grade (Total (n=38))
11 (28.9) n (%): TRAE Elevated AST, any grade (Total (n=38))
1 (2.6) n (%): TRAE Accessory nerve disorder, any grade (Total (n=38)) | TRAE Anaemia, grade 3-4 (Total (n=38)) | TRAE Anaesthesia oral, any grade (Total (n=38)) | TRAE Arrhythmia, any grade (Total (n=38)) | TRAE Arthralgia, any grade (Total (n=38)) | TRAE Asthenia, grade 3-4 (Total (n=38)) | TRAE Blister, any grade (Total (n=38)) | TRAE Chest discomfort, any grade (Total (n=38)) | TRAE Chronic kidney disease, any grade (Total (n=38)) | TRAE Cough, any grade (Total (n=38)) | TRAE Decreased appetite, grade 3-4 (Total (n=38)) | TRAE Dizziness, any grade (Total (n=38)) | TRAE Dysgeusia, grade 3-4 (Total (n=38)) | TRAE Dyskinesia, any grade (Total (n=38)) | TRAE Dyskinesia, grade 3-4 (Total (n=38)) | TRAE Dysphonia, any grade (Total (n=38)) | TRAE Dyspnoea, any grade (Total (n=38)) | TRAE Dyspnoea, grade 3-4 (Total (n=38)) | TRAE Electrocardiogram QT prolonged, any grade (Total (n=38)) | TRAE Elevated D dimer, any grade (Total (n=38)) | TRAE Elevated GGT, any grade (Total (n=38)) | TRAE Elevated LDH, any grade (Total (n=38)) | TRAE Elevated alpha-HBDH, any grade (Total (n=38))
3 (7.9) n (%): TRAE Diarrhoea, any grade (Total (n=38)) | TRAE Dry mouth, any grade (Total (n=38)) | TRAE Elevated bilirubin, any grade (Total (n=38))
2 (20.0) n (%): TRAE Urinary tract infection, any grade (600 mg QD (n=10))
14 (36.8) n (%): TRAE Elevated ALT, any grade (Total (n=38))
13.2%: SAEs, patients (Total (n=38))
9 (23.7) n (%): TRAE Dysgeusia, any grade (Total (n=38))
6 (15.8) n (%): TRAE Decreased Ccr, any grade (Total (n=38))

From publication PMC10088252
